# Test results as given in patent US7875601B2, “Cancer treatment with epothilones” (Novartis AG, priority 1998, dated 2011).
# Several values for one entry are separate records, joined by “and”; a condition that tells them apart may be missing. Equal entries are not always repeated. Where two headings read alike, the source gives them in different places. Marks after values point to notes of the source that are not given here.
# Key:
# [1] = tested on: human COLO 205 colon tumors; type: in vivo, female BALB/c nude mice; settings: 4 mg/kg, day 32
# Method: (§1) Female or male BALB/c nu/nu (nude) mice are kept under sterile conditions (10 to 12 mice per Type III cage) with free access to food and water. Mice weigh between 20 and 25 grams at the time of tumor implantation. Tumors are established by subcutaneous injection of cells (minimum 2×10^6 cells in 100 μl PBS or medium) in carrier mice (4-8 mice per cell line). The resulting tumors are serially passaged for a minimum of three consecutive transplantations prior to start of treatment. Tumor fragments (approx. 25 mg) are implanted s.c. into the left flank of animals with a 13-gauge trocar needle while the mice are exposed to Forene (Abbott, Switzerland) anesthesia.
# (§2) Tumor growth and body weights are monitored once or twice weekly. All treatments are administered intravenously (i.v.) and are initiated when a mean tumor volume of approximately 100 to 250 mm^3 is attained, depending upon the tumor type. Tumor volumes are determined using the formula […] (see Cancer Chemother. Pharmacol. 24:148-154, [1989]). Treatments with epothilone B vary the dose and the frequency of administration. Comparator agents are administered according to previously determined optimal treatment regimens. In addition to presenting changes in tumor volumes over the course of treatment, antitumor activity is expressed as T/C % (mean increase of tumor volumes of treated animals divided by the mean increase of tumor volumes of control animals multiplied by 100). Tumor. regression (%) represents the smallest mean tumor volume compared to the mean tumor volume at the start of treatment, according to the formula Regression (%)=(1−Vend/Vstart)×100(Vend=final mean tumor volume, Vstart=mean tumor volume at the start of treatment. Any animals in which the tumor has reached a size exceeding approximately 1.5 to 2.5 cm^3 are sacrificed. Details can be found below.
# [2] = tested on: A549 non-small cell lung tumors; assay: Antitumor activity on A549 tumors, once weekly dosing (Example 8); type: in vivo, outbred athymic (nu/nu) mice; settings: for body weight loss: 3 weeks experiment, reversible
# Source text: Materials and methods pertaining to the human tumor xenograft model are as previously described.
# Measurements are taken for an additional 2 weeks after completion of the regular 3 weeks experiments, to evaluate reversibility of drug-induced body weight loss, and sustainability of antitumor effects.
# [3] = tested on: human estrogen-dependent ZR-75-1 breast tumors; assay: Antitumor effect against s.c. transplanted ZR-75-1 breast tumors; type: in vivo, female BALB/c nude mice
# Method: as §1, §2
# [4] = 1 mg/kg i.v. once weekly for 3 weeks, day 34
# [5] = 1 mg/kg once weekly for 3 weeks, extended observation, day 48
# [6] = 2 mg/kg i.v. once weekly for 3 weeks, day 34
# [7] = 2 mg/kg once weekly for 3 weeks, extended observation, day 48
# [8] = 3 mg/kg i.v. once weekly for 3 weeks, day 34
# [9] = 3 mg/kg once weekly for 3 weeks, extended observation, day 48
# [10] = 3.5 mg/kg i.v. once weekly for 3 weeks, day 34
# [11] = 3.5 mg/kg once weekly for 3 weeks, extended observation, day 48
# [12] = 1 mg/kg, i.v. every 7 days, day 47
# [13] = 2 mg/kg, i.v. every 7 days, day 47
# [14] = 4 mg/kg, i.v. every 7 days, day 47
# [15] = 4 mg/kg, i.v. every 14 days, day 47
compound,measurement,setting,value
C/C(=C\c1csc(C)n1)[C@@H]1C[C@@H]2O[C@]2(C)CCC[C@H](C)[C@H](O)[C@@H](C)C(=O)C(C)(C)[C@@H](O)CC(=O)O1 [epothilone B],T/C,"[1]; i.v. every 7 days (days 14, 21, 28)",Regressions
same,% Body Weight Change,[1]; i.v. every 7 days,−18 ± 1%
same,Regression,[1]; i.v. every 7 days,−87%
same,Survival (No. alive/total),[1]; i.v. every 7 days,5/7
same,Δ Body Weight,[1]; i.v. every 7 days,-4.0 ± 0.2 g
same,Δ Tumor Volume (mm^3),[1]; i.v. every 7 days,−83 ± 7 mm^3
same,T/C,[1]; i.v. every 14 days (days 14 and 28),Regressions
same,% Body Weight Change,[1]; i.v. every 14 days,−4 ± 4%
same,Regression,[1]; i.v. every 14 days,−69%
same,Survival (No. alive/total),[1]; i.v. every 14 days,7/7
same,Δ Body Weight,[1]; i.v. every 14 days,-1.1 ± 1.0 g
same,Δ Tumor Volume (mm^3),[1]; i.v. every 14 days,−62 ± 7 mm^3
same,% Body Weight Change,[1]; i.v. once,9 ± 1%
same,Regression,[1]; i.v. once,−66%
same,Survival (No. alive/total),[1]; i.v. once,5/7
same,T/C,[1]; i.v. once,Regressions
same,Δ Body Weight,[1]; i.v. once,2.0 ± 0.1 g
same,Δ Tumor Volume (mm^3),[1]; i.v. once,−58 ± 11 mm^3
same,% T/C,[2]; [4],"74% and 74^*,** %"
same,Dead/Total,[2]; [4],0/8
same,Delta % Body Weight,[2]; [4],+10.8%
same,Delta Mean Tumor Vol. (mm^3 ± SEM),[2]; [4],195 ± 21 mm^3
same,Dead/Total,[2]; [5],0/8
same,Delta % Body Weight,[2]; [5],+12.6%
same,Delta Mean Tumor Vol. (mm^3 ± SEM),[2]; [5],339 ± 24 mm^3
same,% T/C,"[2]; 1 mg/kg once weekly for 3 weeks, extended observation, day 48 (week 5)",72%
same,% T/C,[2]; [6],"43% and 43*^,** %"
same,Dead/Total,[2]; [6],0/8
same,Delta % Body Weight,[2]; [6],+0.9%
same,Delta Mean Tumor Vol. (mm^3 ± SEM),[2]; [6],113 ± 21 mm^3
same,Dead/Total,[2]; [7],0/8
same,Delta % Body Weight,[2]; [7],+13.5%
same,Delta Mean Tumor Vol. (mm^3 ± SEM),[2]; [7],232 ± 39 mm^3
same,% T/C,"[2]; 2 mg/kg once weekly for 3 weeks, extended observation, day 48 (week 5)",49* %
same,% T/C,[2]; [8],"23% and 23*^,** %"
same,Dead/Total,[2]; [8],0/8
same,Delta % Body Weight,[2]; [8],−16.4%
same,Delta Mean Tumor Vol. (mm^3 ± SEM),[2]; [8],60 ± 22 mm^3
same,Dead/Total,[2]; [9],0/8
same,Delta % Body Weight,[2]; [9],+13.2%
same,Delta Mean Tumor Vol. (mm^3 ± SEM),[2]; [9],75 ± 25 mm^3
same,% T/C,"[2]; 3 mg/kg once weekly for 3 weeks, extended observation, day 48 (week 5)","16*^,** %"
same,body weight loss,[2]; 3 mg/kg once weekly,approximately 15%
same,% T/C,[2]; [10],"15% and 15*^,** %"
same,Dead/Total,[2]; [10],0/8
same,Delta % Body Weight,[2]; [10],−14.6%
same,Delta Mean Tumor Vol. (mm^3 ± SEM),[2]; [10],40 ± 15 mm^3
same,Dead/Total,[2]; [11],0/8
same,Delta % Body Weight,[2]; [11],+9.7%
same,Delta Mean Tumor Vol. (mm^3 ± SEM),[2]; [11],58 ± 25 mm^3
same,% T/C,"[2]; 3.5 mg/kg once weekly for 3 weeks, extended observation, day 48 (week 5)","12*^,** %"
same,body weight loss,[2]; 3.5 mg/kg once weekly,approximately 15%
same,% Body Weight Change,[3]; [12],2 ± 5%
same,Regression,[3]; [12],none
same,Survival (No. alive/total),[3]; [12],4/6
same,T/C (%),[3]; [12],86%
same,Δ Body Weight,[3]; [12],0.3 ± 1.2 g
same,Δ Tumor Volume (mm^3),[3]; [12],393 ± 135 mm^3
same,% Body Weight Change,[3]; [13],−14 ± 6%
same,Regression,[3]; [13],none
same,Survival (No. alive/total),[3]; [13],5/6
same,T/C (%),[3]; [13],40%
same,Δ Body Weight,[3]; [13],-3.5 ± 1.6 g
same,Δ Tumor Volume (mm^3),[3]; [13],227 ± 76 mm^3
same,T/C (%),"[3]; 4 mg/kg, i.v. every 7 days (days 19, 26 and 33), day 47",1%
same,% Body Weight Change,[3]; [14],−5 ± 3%
same,Survival (No. alive/total),[3]; [14],3/6
same,Δ Body Weight,[3]; [14],-1.2 ± 0.6 g
same,Δ Tumor Volume (mm^3),[3]; [14],29 ± 16 mm^3
same,Regression,"[3]; 4 mg/kg, i.v. every 7 days, transient",−8%
same,T/C (%),"[3]; 4 mg/kg, i.v. every 14 days (days 19 and 33), day 47",46%
same,% Body Weight Change,[3]; [15],−7 ± 5%
same,Regression,[3]; [15],none
same,Survival (No. alive/total),[3]; [15],4/6
same,Δ Body Weight,[3]; [15],-1.6 ± 1.1 g
same,Δ Tumor Volume (mm^3),[3]; [15],208 ± 86 mm^3
